Results: US7807181B2, “Neisseria mutants, lipooligosaccharides and immunogenic compositions” (Emory University, priority 2002, dated 2010)

Key:
[1] = system: Psf protein (arabinose 5-phosphate isomerase); test: Colorimetric assay for keto-pentoses with purified Psf protein; type: biochemical, N. meningitidis; details: 37° C., 10 min, 100 mM Tris-HCl pH 7.5, A540
Description: Psf is the arabinose 5-phosphate isomerase of N. meningitidis. […] To determine if Psf had isomerase activity, a colorimetric assay for keto-pentoses (Bigham et al., 1984) was first conducted using the purified Psf protein, which contained a C-terminal 6×His tag (FIG. 9A). […] The reaction was dependent on the concentration of Psf protein. […] The NMR chemical shifts of the phosphoryl groups of arabinose 5-P and ribulose 5-P are different, thus ^31P NMR can monitor the interconversion between the two sugars. […] The LOS defect in the psf mutant, but not the kdsB mutant, can be complemented by (exogenous) supplementation of arabinose in the growth medium (FIG. 9B), consistent with the identification of the Psf protein as an arabinose 5-phosphate isomerase.
The procedure of Dische and Borenfreund (Dische and Borenfreund, 1951, as modified by Bigham (Bigham, 1984) was used to determine the presence of ketopentoses. Briefly, enzyme was incubated at 37° C. for 10 min in the presence of various aldopentoses (ribose 5-phosphate, erythrose 4-phosphate, glucose 6-phosphate, and arabinose) and 100 mM Tris-HCl (pH 7.5) buffer and assayed as follows. A 250 μl aliquot of the reaction solution was quenched with the addition of 50 μl of a 1.5% cysteine solution followed immediately by 1.5 ml of concentrated H2S04. A 50 μl aliquot of 0.12% carbazole in 95% ethanol was then added, and the solution was heated at 37° C. for 30 min. The absorbance was read at 540 nm. As reported by Bigham et al. (1984), the conversion of 1 μmol of A5P to 1 μmol of Ru5P gave an ΔA of 8.2.

[2] = target: T1, CD14/TLR4-MD-2 receptor complex (Homo sapiens, UniProt O00206+Q9Y6Y9); test: Activation of receptor complex by synthetic KDO; type: cell-based; details: dose ranges from 10 ng-100 mg; data not shown
T1 construct: endogenous in cells
T1 sequence (O00206 24-839): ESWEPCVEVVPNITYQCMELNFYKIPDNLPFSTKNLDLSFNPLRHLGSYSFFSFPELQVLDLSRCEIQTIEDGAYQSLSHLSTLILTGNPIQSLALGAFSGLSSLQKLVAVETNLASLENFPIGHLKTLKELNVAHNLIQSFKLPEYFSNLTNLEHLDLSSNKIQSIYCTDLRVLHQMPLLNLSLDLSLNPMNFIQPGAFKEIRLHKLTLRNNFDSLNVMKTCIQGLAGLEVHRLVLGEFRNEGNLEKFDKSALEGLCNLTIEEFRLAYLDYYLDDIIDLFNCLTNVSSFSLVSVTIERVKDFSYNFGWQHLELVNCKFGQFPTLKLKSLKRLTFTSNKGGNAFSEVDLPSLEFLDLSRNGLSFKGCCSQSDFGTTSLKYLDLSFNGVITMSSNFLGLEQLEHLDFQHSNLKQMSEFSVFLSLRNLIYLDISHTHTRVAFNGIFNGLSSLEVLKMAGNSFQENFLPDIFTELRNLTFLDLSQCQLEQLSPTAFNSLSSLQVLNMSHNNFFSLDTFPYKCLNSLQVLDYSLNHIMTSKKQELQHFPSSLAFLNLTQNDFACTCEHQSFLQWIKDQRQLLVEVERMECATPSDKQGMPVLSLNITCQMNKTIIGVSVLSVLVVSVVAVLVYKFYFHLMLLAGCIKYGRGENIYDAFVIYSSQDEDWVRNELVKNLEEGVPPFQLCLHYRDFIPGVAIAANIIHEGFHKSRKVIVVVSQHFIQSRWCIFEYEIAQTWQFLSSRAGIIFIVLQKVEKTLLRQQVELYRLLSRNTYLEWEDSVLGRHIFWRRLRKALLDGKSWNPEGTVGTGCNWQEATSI
T1 sequence (Q9Y6Y9 19-160): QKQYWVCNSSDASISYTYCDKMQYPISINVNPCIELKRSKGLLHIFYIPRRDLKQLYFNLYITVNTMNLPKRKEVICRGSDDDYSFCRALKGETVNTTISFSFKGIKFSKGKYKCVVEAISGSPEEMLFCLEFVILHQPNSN
Description: Acid hydrolysis might affect lipid A phosphate head groups and contribute to attenuation.

[3] = system: differentiated U937 and THP-1 human macrophage-like cells; test: Cytokine (TNFa, IL-1b, IL-8, IL-10) induction in macrophage-like cells stimulated with endotoxin; type: cell-based; details: 2 mg/ml added during the induction assay
Description: The meningococcal mutant LOS preparations were used to investigate the role of endotoxin structure on the activation of macrophages via the CD14/TLR4-MD-2 receptor complex. Endotoxins were quantified and standardized based on lipid A content. Cytokine (TNFa, IL-1b, IL-8 or IL-10) induction, nitric oxide and reactive oxygen species (ROS) release from differentiated U937 and THP-1 human macrophage-like cells or RAW264.7 murine macrophages stimulated with endotoxin (0.56 pmole/ml, approximately 1 ng/ml) was studied.
Alternatively, LOS from a genetically-defined mutants of the serogroup B N. meningitidis strain NMB (encapsulated, L2 immunotype) (listed in Table I) were initially extracted by the phenol-water method (21). Residual membrane phospholipids (unsaturated fatty acyl residues C18:0) were removed by repeated extraction of the dry LOS samples with 9:1 ethanol:water. The expected LOS fatty acyl components of 3-OHC12:0, 3-OHC14:0 and C12:0 and the absence of membrane phospholipids was assessed by Mass spectroscopy (GC-MS). LOS preparations were examined by SDS-PAGE (22), quantitated and standardized based on the number of lipid A molecules per sample (23). […] The resulting methyl b-trimethylsilylmyristate was identified and quantified by GC-MS analysis. […]

| Molecule | substrate for the Psf protein [1] | also measured |
| --- | --- | --- |
| O=C[C@H](O)[C@H](O)[C@H](O)COP(=O)(O)O [ribose 5-phosphate] | did not serve as substrates | – |
| O=C[C@@H](O)[C@H](O)[C@H](O)CO [arabinose] | did not serve as substrates | – |
| O=C[C@H](O)[C@H](O)COP(=O)(O)O [erythrose 4-phosphate] | did not serve as substrates | – |
| O=C(O)C(=O)CC(O)C(O)C(O)C(O)CO (stereo not drawn) [Synthetic KDO, 2-keto-3-deoxyoctonic acid] | – | activation of the CD14/TLR4-MD-2 receptor complex [2]: did not activate |
| O=C[C@H](O)[C@@H](O)[C@H](O)[C@H](O)COP(=O)(O)O [glucose 6-phosphate] | did not serve as substrates | – |
| polymyxin B | – | effect on meningococcal LOS-induced cytokine release [3]: neutralized |
